We go through two molecules from article PMC5755735, “Discovery of indolylpiperazinylpyrimidines with dual-target profiles at adenosine A2A and dopamine D2 receptors for Parkinson's disease treatment” (PLoS ONE, 2018).

Values joined by “and” are separate entries in the source; they are usually repeats but may differ in a detail not shown here. Identical values can stand only once.

For data set [1], the target named is human A2A receptors expressed in CHO cells (Homo sapiens, UniProt P29274). Nature of the data set: competition binding at human A2A adenosine receptors ([3H]NECA displacement). The conditions noted are these: for Ki: displacement of [3H]NECA, CHO cells, 95% confidence limits, n = 3–6, read-out: Ki hA2A; for hA1/hA2A / hA3/hA2A: selectivity ratio of Ki values. The method, then: (§1) A two-step procedure was adopted to prepare membrane for radioligand binding from cells stably transfected with human adenosine receptor subtypes (hA1, hA2A and hA3 expressed on CHO cells). Firstly, cell fragments and nuclei were removed by using low-speed centrifugation (1,000 g for 10 min). After that, crude membrane fraction from supernatant was then sedimented at 100,000 g for 30 min. The membrane pellet was subsequently re-suspended in the specific binding buffer, frozen in liquid nitrogen and stored at -80°C. For measurement of adenylyl cyclase activity in the hA2B receptors, one-step centrifugation procedure was used; the homogenate was sedimented for 30 min at 54,000 g. The so-obtained crude membrane pellet was re-suspended in 50 mM Tris/HCl, pH 7.4 and used for the adenylyl cyclase assay immediately.
Chain of human A2A receptors expressed in CHO cells (P29274 whole entry, the tested form may be a part): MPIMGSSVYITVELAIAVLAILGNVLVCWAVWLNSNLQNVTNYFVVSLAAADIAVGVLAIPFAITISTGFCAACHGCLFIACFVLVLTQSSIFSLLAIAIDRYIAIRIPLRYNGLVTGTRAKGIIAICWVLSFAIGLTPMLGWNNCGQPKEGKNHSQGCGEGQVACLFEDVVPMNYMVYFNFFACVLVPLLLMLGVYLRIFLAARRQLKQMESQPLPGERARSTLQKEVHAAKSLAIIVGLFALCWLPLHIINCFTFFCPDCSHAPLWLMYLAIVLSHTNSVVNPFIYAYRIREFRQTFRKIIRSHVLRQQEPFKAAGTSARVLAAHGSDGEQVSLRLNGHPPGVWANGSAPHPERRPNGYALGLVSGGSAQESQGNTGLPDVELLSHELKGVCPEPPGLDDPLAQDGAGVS
(§2) Non-specific binding was determined using theophylline 1 mM. […] Non-specific binding was determined using N^6-R-phenylisopropyl adenosine (R-PIA) 100 μM. ^41 The binding of [^3H]HEMADO to CHO cells transfected with hA3 adenosine receptors was carried out as described earlier. […] Non-specific binding was determined using R-PIA 100 μM.
(§3) The assay mixture was then filtered through the built-in filter at the bottom of the 96-well microplate filtration system (Millipore Multiscreen MAFC) and washed three times with 200 μL of cold buffer. After addition of 20 μL of scintillator to the dried filter plates, the filter bound radioactivity was counted on a Wallac Micro-Beta counter. All Ki values were calculated by non-linear curve fitting with the program SCTFIT [45].
In general terms: Displacement assays read how much labelled ligand stays bound in the presence of the test substance.

The target in data set [2] is human dopamine D2 receptor (Homo sapiens, UniProt P14416). Nature of the data set: adenylyl cyclase inhibition (cAMP accumulation) assay in CHO cells transfected with D2 receptor. Also on record: expressed in transfected cells; host or cells: CHO cells. The class given is cell-based. Background: Changes in cAMP serve as a functional read-out for many G protein-coupled receptors.
Chain of human dopamine D2 receptor (P14416 whole entry): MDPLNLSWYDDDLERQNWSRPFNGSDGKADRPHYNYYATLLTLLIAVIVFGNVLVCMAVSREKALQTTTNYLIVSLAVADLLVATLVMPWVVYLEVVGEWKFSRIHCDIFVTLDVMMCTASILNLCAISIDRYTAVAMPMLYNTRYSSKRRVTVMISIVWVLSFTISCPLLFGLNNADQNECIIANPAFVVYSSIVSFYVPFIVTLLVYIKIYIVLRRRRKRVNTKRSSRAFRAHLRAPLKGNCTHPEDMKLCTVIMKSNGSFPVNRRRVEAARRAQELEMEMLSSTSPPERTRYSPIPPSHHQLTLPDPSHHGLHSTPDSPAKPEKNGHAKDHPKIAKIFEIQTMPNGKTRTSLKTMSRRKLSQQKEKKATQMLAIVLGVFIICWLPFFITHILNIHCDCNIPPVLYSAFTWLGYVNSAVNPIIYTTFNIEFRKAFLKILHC
Description: CHO cells transfected with D2 receptors were cultured and then serum starved overnight. Cells were treated with various concentrations of ligands (25 μL of 10X solution), stimulated with forskolin (0.5 μM) and 3-isobutyl-1-methylxanthine (IBMX) (0.5 mM), and incubated for 15 minutes. After lysis, cAMP content was determined by ELISA.

For data set [3], the target named is T1, human A3 receptors expressed in CHO cells (Homo sapiens, UniProt P0DMS8).
T1 sequence (P0DMS8 1-318): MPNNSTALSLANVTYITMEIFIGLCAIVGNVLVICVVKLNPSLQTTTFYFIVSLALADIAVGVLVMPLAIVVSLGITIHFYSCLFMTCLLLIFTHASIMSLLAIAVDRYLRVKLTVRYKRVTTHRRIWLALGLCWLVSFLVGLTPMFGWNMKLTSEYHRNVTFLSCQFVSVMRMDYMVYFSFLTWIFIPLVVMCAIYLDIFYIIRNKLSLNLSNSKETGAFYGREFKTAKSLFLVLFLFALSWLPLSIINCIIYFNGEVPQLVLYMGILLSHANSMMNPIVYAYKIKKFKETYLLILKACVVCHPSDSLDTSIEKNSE
Nature of the data set: competition binding at human A3 adenosine receptors ([3H]HEMADO displacement). To be noted: displacement of [3H]HEMADO, 95% confidence limits, n = 3–6, read-out: Ki hA3. On the procedure: as §1, §2, §3

The subject of another data set is LRRK2 G2019S flies. The data set is described as follows: fly viability / survival of mutant LRRK2 G2019S flies. The conditions noted are these: for effect on fly viability / mortality: concentrations in the 50–100 μM range; for effect on fly viability: ligand concentration 500 μM. The class given is in vivo. The method, then: Studies have shown that expression of the LRRK2-G2019S mutantion in Drosophila caused more severe PD phenotypes, including locomotor dysfunction, loss of dopaminergic neurons, and early mortality, relative to that of wild-type LRRK2 [31]. Prior to evaluating compounds 5 and 6 in the Drosophila model of PD, the effect of compound concentrations on fly viability was studied. At the ligand concentration of 500 μM, both compounds were lethal to G2019S flies (data not shown). […] As there was no remarkable difference in the survival rate between 50 and 100 μM for compound 5, this range was selected for compound 5 for the subsequent climbing assay and quantification of DA neurons.
Fly lines for 24B-Gal4 (muscle specific), ddc-Gal4 (dopaminergic neuron-specific), elav-Gal4 (pan-neuronal), UAS-mito-GFP, and UAS-dAMPK-KA were purchased from Bloomington Drosophila Stock Center. The parkin-null mutant flies were kind gifts from Chung J. and Cho K. S. (Korea Advanced Institute of Science and Technology, Daejeon, Korea). To generate transgenic mutant LRRK2 G2019S, cDNA containing a myc-tag at the C terminus was inserted into pUAST plasmid and microinjected into Drosophila embryos (BestGene). Sequencing of cloned products was performed before they were microinjected into the embryos. Climbing assays were performed according to a previously described method. Briefly, 20 female adult flies from each group were randomly selected after being anaesthetised and placed in a vertical plastic column (length 25 cm; diameter 1.5 cm). Age-matched normal flies were used as controls. After a 2-hour recovery period from CO2 exposure, flies were gently tapped to the bottom of the column, and the number of flies that reached the top of column at 1 min was counted. Results are presented as mean ± SEM of the scores obtained from three independent experiments. To study the effect of compounds, flies were fed with cornmeal-agar medium supplemented with the DMSO solution of the compound immediately at post-eclosion (for parkin-null flies) or at day 35 onwards (for LRRK2 mutant flies) for a period of 25 days. Immunohistochemical analysis of whole-mount adult fly brains were prepared according to published protocols and stained with rabbit anti-TH (1:300, Pel-Freez Biologicals) as primary antibody. The stained samples were viewed using an Olympus Fluoview Upright Confocal Microscope. DA neurons were quantified according to previously published method. The size of mito-GFP puncta was measured using the ImageJ program and expressed as mean ± SD (n ≥ 10 DA neurons per experimental group). Statistical significance for all the quantitative data obtained were analyzed using one-way ANOVA with Tukey’s test HSD post hoc test (*p < 0.05, **p < 0.01).

In data set [4] the target is T2, human A1 receptors expressed in CHO cells (Homo sapiens, UniProt P30542).
T2 sequence (P30542 1-326): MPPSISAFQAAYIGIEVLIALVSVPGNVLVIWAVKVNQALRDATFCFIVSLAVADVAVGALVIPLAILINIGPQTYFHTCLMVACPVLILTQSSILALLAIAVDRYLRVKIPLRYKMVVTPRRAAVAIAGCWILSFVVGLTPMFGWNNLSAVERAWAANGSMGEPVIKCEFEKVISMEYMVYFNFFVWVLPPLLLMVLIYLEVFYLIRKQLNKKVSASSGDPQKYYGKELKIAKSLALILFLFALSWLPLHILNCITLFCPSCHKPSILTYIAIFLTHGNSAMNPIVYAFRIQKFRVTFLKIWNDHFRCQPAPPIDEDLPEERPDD
The data set is described as follows: competition binding at human A1 adenosine receptors ([3H]CCPA displacement). To be noted: displacement of [3H]CCPA, 95% confidence limits, n = 3–6, read-out: Ki hA1. On the procedure:
as §1, §2, §3

`Cc1cc(C)nc(N2CCN(C(=O)Cc3c(C)[nH]c4ccccc34)CC2)n1` [Compound 6, 1‐[4‐(4,6‐Dimethylpyrimidin‐2‐yl)piperazin‐1‐yl]‐2‐(2‐methyl‐1H‐indol‐3‐yl)ethan‐1‐one]: in data set [1], the Ki – broadly, the dissociation constant of the complex between target and ligand, obtained from inhibition or displacement – was determined as 8.71 µM; the hA1/hA2A was >11; the hA3/hA2A is on record as >11. In addition, in data set [2] (1 μM, 10 μM and 100 μM), the “functional activity at D2 receptor (cAMP accumulation induced by forskolin/IBMX)” value is on record as “acted as a D2 receptor agonist”. In addition, the “inhibition of cAMP accumulation (optimal inhibition)” value in data set [2] (100 μM, p = 0.0232) is listed as “comparable potency to 100 nM of quinpirole”. Besides, in data set [3], the Ki was > 100 µM. Moreover, in the data set with LRRK2 G2019S flies, the “effect on fly viability / mortality” value is on record as “toxicity” and the “effect on fly viability” value is “lethal”. For the same molecule, in data set [4], the Ki was > 100 µM.
As to `Cc1cc(C)nc(N2CCN(C(=O)c3c[nH]c4ccccc34)CC2)n1` [Compound 5, 3‐[4‐(4,6‐Dimethylpyrimidin‐2‐yl)piperazine‐1‐carbonyl]‐1H‐indole], in data set [1], the Ki is 11.2 µM and 8.7 to 11.2 µM; the hA1/hA2A is given as >9; the hA3/hA2A is reported as >9. Moreover, the Ki in data set [3] is > 100 µM. Also, in the data set on LRRK2 G2019S flies, the “effect on fly viability / mortality” value is on record as “able to delay the G2019S fly mortality” and the “effect on fly viability” value was “lethal”. Further, the Ki in data set [4] was > 100 µM.
